Test results published in US4510144A, “Methods of imparting immunomodulating activity with dihydrothiazolo purine derivatives” (Newport Pharmaceuticals International, priority 1982, dated 1985).
Read-outs that look alike come from different tables or passages of the source.

How the values were obtained:
[1] = tested on: murine spleen cells, LPS induced (B-cells); assay: LPS induced lymphocyte proliferation in mouse spleen cells in vitro; type: cell-based, mouse (Balb/C); details: for activity at 0.01 µg/mL / activity at 0.1 µg/mL / activity at 1 µg/mL / activity at 2.5 µg/mL / activity at 5 µg/mL / activity at 25 µg/mL / activity at 50 µg/mL: Mus musculus, B-cell
Source text: (1) Mitogen-(Lipopolysaccharide, LPS or Con A) induced lymphocyte proliferation using murine spleen cells (in vitro)
1. […] LPS is a mitogen which acts preferentially on B-cells. […] Con A is considered a T-cell mitogen.
1. Balb/C male mice, 7-8 weeks old, are used up to 20-24 weeks of age.
2. The animals are sacrificed by cervical dislocation and the animals' left sides swabbed with 70% ethanol. An incision is made between the lower ribs and pelvis, laterally from front to back, and the skin retracted. Aseptic technique is to be observed from this point on.
3. The spleen is gently removed with sterile forceps. […] When all spleens have been collected and cleaned they are placed in a second petri dish containing 3 ml cold RPMI.
4. Spleen cell suspensions are prepared by gentle mincing of the tissue with a sterile blade and filtering through #100 stainless steel mesh.
6. An aliquot of the above suspension is prepared for cell counting as follows: 0.1 ml of suspension is diluted to 1.0 ml with 3% acetic acid and let stand at room temperature for at least five minutes. The sample is then diluted 1:100 with "Isoton II" (Curtis-Matheson Co.) and counted in a coulter counter.
MURINE SPLENOCYTE STIMULATION WITH CONCANAVALIN A (CON A), LIPOPOLYSACCHARIDE (LPS), AND ALLOGENEIC SPLENOCYTES (LMC).
There is set forth below the standard procedure which should be modified according to the solubility and other properties of the particular compound tested.
Add ~10 ml RPMI to 1.79 g HEPES and vortex until completely dissolved. […] Allow to warm temperature before use.
6. LPS (Sigma, E, coli serotype #011:84)--~1 mg/ml. […] Remove ~10 ml for dissolving HEPES (0.358 g) and filter HEPES solution. Add four 25 mg bottles of LPS to remaining media and incubate at 37° C. for 1 hour. Filter through 0.22 μm filters, add filtered HEPES, aliquot in 2 ml and store at -70° C.
8. Tritiated thymidine (^3 H-TdR, Schwartz-Mann, 6 Ci/mM). Remove a slightly larger volume of ^3 H-TdR than needed from vial with a 1 cc syringe and place volume in the cap of a small sterile plastic tube. […] Vortex thoroughly before adding to plates.
1. Animals are sacrificed by cervical dislocation killing one from each group and processing the cells individually before killing the next animal. Swab each animal with 70% ethanol before surgery. […] Use 8 vertical strokes (or enough to break up all tissue) with Teflon-tipped homogenizer. Filter each sample through a 100 mesh screen into a 50 ml tube. […] After all samples have been spun, vortex each briefly and let sit for 1 hour. Vortex each sample ~5 seconds, waiting ~10 seconds between each sample. Let sit 5 minutes, then pipet cell suspension into 5 ml (12×75 mm) tube being careful not to remove any sediment. Remove 50 ul cell suspension using micropipetter, carefully wipe pipet tip with kimwipe and pipet into 20 ml Isoton in Coulter counter vial, rinsing pipet several times in the Isoton. Add 6 drops of CyMet and swirl vial to mix. Use the following Coulter counter settings: Amplification-1, Threshold-10, and Aperture Current-1. Clean counter with Isoterge the morning of experiment and count background before standardizing with CH 0.60 Hematology Controls. After cell counts are obtained, dilute to 6×10^6 cells/ml with supplemented RPMI and aliquot into 3 tubes for the 3 assays.
1. Pipet 100 μl control media (supplemented RPMI) or appropriate dilution of mitogen (starting with lowest concentration) into microtiter plate using Titertek multi-channel pipetter. Place plates in 37° C. CO2 incubator with CO2 set at 0.5 after each plate has been pipetted. Pipet 100 μl responder cells into wells starting with most dilute mitogen concentration. Place plates in incubator as they are filled and after all plates are in incubator, let sit for 10-20 minutes. Wrap plates with plastic wrap, recover with top, replace in incubator, and reset CO2 to ~0.05. Save ~50 ml supplemented RPMI at 4° C. for thymidine dilution.

[2] = tested on: macrophages; assay: lymphokine (macrophage mitogenic factor, MMF) induced macrophage proliferation in vitro; type: cell-based
Source text: (2) Lymphokine (macrophage mitogenic factor, MMF) induced macrophage proliferation (in vitro
2. NPT 16416 is also capable of augmenting the lymphokine (MMF) induced proliferation of macrophages causing a 70% enhancement of macrophage proliferation.

Q: Which results are given for `Oc1ncnc2c1nc1n2CCS1` [NPT 16416, 3-hydroxy-7,8-dihydrothiazolo-[3,2e]-purine]?
A: activity at 0.01 µg/mL ([1]; read-out: Hi Mitogen D/C LPS): 105%; activity at 0.01 µg/mL ([1]; read-out: Lo Mitogen D/C LPS): 130%; activity at 0.1 µg/mL ([1]; drug 100 ng/ml, LPS 5 μg/ml, drug/control, read-out: Lo Mitogen D/C LPS): 157%; activity at 0.1 µg/mL ([1]; drug 100 ng/ml, LPS 100 μg/ml, drug/control, read-out: Hi Mitogen D/C LPS): 114%; activity at 1 µg/mL ([1]; drug 1,000 ng/ml, LPS 5 μg/ml, drug/control, read-out: Lo Mitogen D/C LPS): 135%; activity at 1 µg/mL ([1]; drug 1,000 ng/ml, LPS 5 μg/ml, read-out: LPS D/C (maximum values)): 201%; activity at 1 µg/mL ([1]; drug 1,000 ng/ml, LPS 100 μg/ml, drug/control, read-out: Hi Mitogen D/C LPS): 117%; activity at 2.5 µg/mL ([1]; drug 2,500 ng/ml, LPS 5 μg/ml, drug/control, read-out: Lo Mitogen D/C LPS): 136%; activity at 2.5 µg/mL ([1]; drug 2,500 ng/ml, LPS 100 μg/ml, drug/control, read-out: Hi Mitogen D/C LPS): 107%; activity at 5 µg/mL ([1]; drug 5,000 ng/ml, LPS 5 μg/ml, drug/control, P < 0.05, read-out: Lo Mitogen D/C LPS): 168%; activity at 5 µg/mL ([1]; drug 5,000 ng/ml, LPS 100 μg/ml, drug/control, read-out: Hi Mitogen D/C LPS): 105%; activity at 25 µg/mL ([1]; drug 25,000 ng/ml, LPS 5 μg/ml, drug/control, P < 0.005, read-out: Lo Mitogen D/C LPS): 249%; activity at 25 µg/mL ([1]; drug 25,000 ng/ml, LPS 5 μg/ml, read-out: LPS D/C (maximum values)): 236%; activity at 25 µg/mL ([1]; drug 25,000 ng/ml, LPS 100 μg/ml, drug/control, P < 0.025, read-out: Hi Mitogen D/C LPS): 157%; activity at 50 µg/mL ([1]; drug 50,000 ng/ml, LPS 5 μg/ml, drug/control, P < 0.005, read-out: Lo Mitogen D/C LPS): 280%; activity at 50 µg/mL ([1]; drug 50,000 ng/ml, LPS 100 μg/ml, drug/control, P < 0.005, read-out: Hi Mitogen D/C LPS): 189%; CPM + LPS ([1]; drug 10 ng/ml, LPS 5 μg/ml): 1,458 CPM; CPM + LPS ([1]; drug 10 ng/ml, LPS 100 μg/ml): 8,603 CPM; CPM + LPS ([1]; drug 100 ng/ml, LPS 5 μg/ml): 1,760 CPM; CPM + LPS ([1]; drug 100 ng/ml, LPS 100 μg/ml): 8,518 CPM; CPM + LPS ([1]; drug 1,000 ng/ml, LPS 5 μg/ml): 1,515 CPM; CPM + LPS ([1]; drug 1,000 ng/ml, LPS 100 μg/ml): 8,689 CPM; CPM + LPS ([1]; drug 2,500 ng/ml, LPS 5 μg/ml): 1,522 CPM; CPM + LPS ([1]; drug 2,500 ng/ml, LPS 100 μg/ml): 7,975 CPM; CPM + LPS ([1]; drug 5,000 ng/ml, LPS 5 μg/ml): 1,881 CPM; CPM + LPS ([1]; drug 5,000 ng/ml, LPS 100 μg/ml): 7,788 CPM; CPM + LPS ([1]; drug 25,000 ng/ml, LPS 5 μg/ml): 2,789 CPM; CPM + LPS ([1]; drug 25,000 ng/ml, LPS 100 μg/ml): 11,683 CPM; CPM + LPS ([1]; drug 50,000 ng/ml, LPS 5 μg/ml): 3,132 CPM; CPM + LPS ([1]; drug 50,000 ng/ml, LPS 100 μg/ml): 14,065 CPM; effect on B-cell response / LPS induced proliferation, in words ([1]; in vitro): enhance B-cell proliferation; augmentation of LPS induced lymphocyte proliferation ([1]; in vitro, mouse spleen cells): 30-180%; effect on B-cell response / LPS induced proliferation, in words ([1]; in vitro, listed as Ia): stimulating the B-cell response; enhancement of lymphokine (MMF) induced macrophage proliferation [2]: 70%
